This note sets out measurements from ChEMBL document CHEMBL1140262 (J Med Chem, 2005).

For test [1], the target named is Synaptic vesicular amine transporter (Rattus norvegicus, UniProt Q01827). The format is cell membranes, Membrane.
Description: Inhibition of 5 nM [3H]DTBZ binding to Vesicular Monoamine Transporter (VAMT2) of rat vesicle membranes
Test [2] addresses Neuronal acetylcholine receptor subunit alpha-7 (Rattus norvegicus, UniProt Q05941). The format is cell membranes, Membrane.
Description: Inhibition of 3 nM [3H]-MLA binding to Nicotinic acetylcholine receptor alpha7 of rat brain membranes
In test [3] the target is Neuronal acetylcholine receptor; alpha4/beta2 (Rattus norvegicus, UniProt P09483+P12390). Nature of the test: Inhibition of 3 nM [3H]NIC binding to Nicotinic acetylcholine receptor alpha4-beta2 of rat striatal membranes. The format is cell membranes, Membrane.
For test [4], the species on record is Rattus norvegicus. Nature of the test: Ratio of Ki for Nicotinic acetylcholine receptor alpha-7 and Vesicular monoamine transporter ([…]).
Test [5] is filed under the species Rattus norvegicus. Nature of the test: Ratio of Ki for Nicotinic acetylcholine receptor alpha4-beta2 and Vesicular Monoamine Transporter ([…]).

In general, Ki refers to the equilibrium dissociation constant of an inhibitor or competing ligand from its target. Lower therefore signals tighter binding.

Chain of Synaptic vesicular amine transporter (Q01827 whole entry): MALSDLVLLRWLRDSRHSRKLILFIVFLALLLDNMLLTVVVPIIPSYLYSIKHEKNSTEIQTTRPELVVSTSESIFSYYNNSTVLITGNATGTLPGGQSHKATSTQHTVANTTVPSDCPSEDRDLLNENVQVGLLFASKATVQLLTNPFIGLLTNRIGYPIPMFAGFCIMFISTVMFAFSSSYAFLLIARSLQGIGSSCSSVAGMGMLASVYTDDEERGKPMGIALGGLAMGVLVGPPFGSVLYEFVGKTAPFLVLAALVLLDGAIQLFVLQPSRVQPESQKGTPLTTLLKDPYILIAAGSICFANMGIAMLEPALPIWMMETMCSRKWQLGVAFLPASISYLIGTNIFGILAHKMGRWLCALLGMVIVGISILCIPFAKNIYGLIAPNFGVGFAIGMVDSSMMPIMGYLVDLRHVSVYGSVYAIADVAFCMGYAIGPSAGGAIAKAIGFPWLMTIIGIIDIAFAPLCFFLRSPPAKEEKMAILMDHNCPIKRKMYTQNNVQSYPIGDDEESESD
Chain of Neuronal acetylcholine receptor; alpha4/beta2 (P09483 whole entry): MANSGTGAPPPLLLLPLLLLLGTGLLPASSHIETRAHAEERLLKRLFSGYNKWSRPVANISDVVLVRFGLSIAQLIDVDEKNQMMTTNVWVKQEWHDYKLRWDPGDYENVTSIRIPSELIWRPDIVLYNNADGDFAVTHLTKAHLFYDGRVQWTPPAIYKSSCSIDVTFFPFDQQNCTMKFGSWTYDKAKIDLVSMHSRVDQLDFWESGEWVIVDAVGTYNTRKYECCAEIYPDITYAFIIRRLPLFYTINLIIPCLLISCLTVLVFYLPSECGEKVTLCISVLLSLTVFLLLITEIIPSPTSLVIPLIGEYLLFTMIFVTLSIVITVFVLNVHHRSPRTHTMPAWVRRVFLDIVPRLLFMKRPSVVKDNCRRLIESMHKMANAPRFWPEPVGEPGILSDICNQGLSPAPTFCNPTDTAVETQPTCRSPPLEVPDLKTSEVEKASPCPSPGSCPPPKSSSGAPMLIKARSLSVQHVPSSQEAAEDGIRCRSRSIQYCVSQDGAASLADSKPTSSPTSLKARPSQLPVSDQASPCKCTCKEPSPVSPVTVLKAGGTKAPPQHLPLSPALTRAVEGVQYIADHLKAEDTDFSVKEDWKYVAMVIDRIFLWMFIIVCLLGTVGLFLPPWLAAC
Chain of Neuronal acetylcholine receptor; alpha4/beta2 (P12390 whole entry): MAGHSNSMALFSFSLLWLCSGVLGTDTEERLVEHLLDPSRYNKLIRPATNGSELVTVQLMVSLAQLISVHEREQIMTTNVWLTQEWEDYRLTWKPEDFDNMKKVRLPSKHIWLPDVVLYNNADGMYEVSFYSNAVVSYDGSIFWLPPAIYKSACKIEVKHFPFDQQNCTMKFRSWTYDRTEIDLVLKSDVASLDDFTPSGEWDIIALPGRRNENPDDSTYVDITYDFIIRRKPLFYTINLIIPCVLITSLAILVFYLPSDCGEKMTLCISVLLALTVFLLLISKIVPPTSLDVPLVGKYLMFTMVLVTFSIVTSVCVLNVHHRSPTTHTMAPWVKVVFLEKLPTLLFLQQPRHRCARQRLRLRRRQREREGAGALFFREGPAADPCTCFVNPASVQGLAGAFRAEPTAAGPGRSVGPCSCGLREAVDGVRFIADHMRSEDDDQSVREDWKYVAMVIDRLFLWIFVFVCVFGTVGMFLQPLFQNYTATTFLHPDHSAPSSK
Chain of Neuronal acetylcholine receptor subunit alpha-7 (Q05941 whole entry): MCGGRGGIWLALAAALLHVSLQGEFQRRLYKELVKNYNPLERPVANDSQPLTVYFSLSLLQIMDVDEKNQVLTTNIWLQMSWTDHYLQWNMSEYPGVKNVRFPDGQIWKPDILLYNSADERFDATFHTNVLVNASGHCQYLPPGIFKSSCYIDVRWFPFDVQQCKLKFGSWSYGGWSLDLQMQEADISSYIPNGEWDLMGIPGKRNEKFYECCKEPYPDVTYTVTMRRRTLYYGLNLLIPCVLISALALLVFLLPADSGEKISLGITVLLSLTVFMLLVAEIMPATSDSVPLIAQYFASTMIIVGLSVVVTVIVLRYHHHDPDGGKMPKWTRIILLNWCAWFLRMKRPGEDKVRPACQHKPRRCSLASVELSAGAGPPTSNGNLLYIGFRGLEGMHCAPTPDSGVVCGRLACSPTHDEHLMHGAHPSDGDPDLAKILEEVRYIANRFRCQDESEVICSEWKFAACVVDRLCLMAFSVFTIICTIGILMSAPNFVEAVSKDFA

Consider `CN(C/C=C/c1ccccc1)C/C=C/c1ccccc1`, for which the Ki in test [1] is 2.37 µM; in test [2], > 100 µM; in test [3], > 100 µM. In addition, the Ki ratio in the test filed under Rattus norvegicus [4] and in the test listed under Rattus norvegicus [5] was > 42.2 each time.
For `CN1[C@@H](CCc2cccc3ccccc23)CCC[C@H]1CCc1cccc2ccccc12`, the Ki in test [1] is 0.63 µM; in test [2], > 100 µM; in test [3], > 100 µM. Also, the Ki ratio in the test listed under Rattus norvegicus [4] and in the test listed under Rattus norvegicus [5] was > 159 in each case.
Consider `CN1[C@H](CCc2ccccc2)CCC[C@H]1CCc1ccccc1`, for which affinity in test [2] was put at a Ki of 25.3 µM.
In the case of `c1ccc(CC[C@H]2CCC[C@@H](CCc3ccccc3)N2)cc1`, the values for the Ki in test [1], in test [2] and in test [3] were 2.31 µM, > 100 µM and > 100 µM, respectively. Also, the Ki ratio in the test listed under Rattus norvegicus [4] and in the test listed under Rattus norvegicus [5] was > 43.3 in each case.
In the case of `CN1[C@H](/C=C/c2ccccc2)CCC[C@H]1/C=C/c1ccccc1`, the Ki in test [1] is 19.4 µM; in test [2] it was > 100 µM; in test [3], > 100 µM. Further, the Ki ratio in the test filed under Rattus norvegicus [4] and in the test filed under Rattus norvegicus [5] was > 5.2 throughout.
With `C[N+]1(C)[C@@H](CCc2ccccc2)CCC[C@H]1CCc1ccccc1`, the Ki in test [1] amounted to 16.5 µM; in test [2], 9.63 µM; in test [3], 24.3 µM. Moreover, the Ki ratio in the test filed under Rattus norvegicus [4] was 0.6; in the test listed under Rattus norvegicus [5], 1.5.
`c1ccc2cc(CC[C@H]3CCC[C@@H](CCc4ccc5ccccc5c4)N3)ccc2c1`: the Ki in test [1], in test [2] and in test [3] was > 100 µM each time.
For `C[N+]1(C)[C@H](/C=C/c2ccccc2)CCC[C@H]1/C=C/c1ccccc1`, the results for the Ki in test [1], in test [2] and in test [3] were 9.24 µM, 15.1 µM and > 100 µM, respectively. The Ki ratio was 1.6 in the test filed under Rattus norvegicus [4] and > 10.8 in the test filed under Rattus norvegicus [5].
In the case of `CN1[C@H](CCc2ccccc2)CCC[C@@H]1/C=C/c1ccccc1`, in test [3], the Ki is > 100 µM.
As for `CN1[C@@H](/C=C/c2ccccc2)CCC[C@@H]1/C=C/c1ccccc1`, the Ki is 7.09 µM in test [1], > 100 µM in test [2] and > 100 µM in test [3]. The Ki ratio in the test listed under Rattus norvegicus [4] and in the test listed under Rattus norvegicus [5] was > 14.1 throughout.
On to `C(=C\[C@@H]1CCC[C@@H](/C=C/c2ccccc2)N1)/c1ccccc1.C(=C\[C@H]1CCC[C@H](/C=C/c2ccccc2)N1)/c1ccccc1`, for which the values for the Ki in test [1], in test [2] and in test [3] were 5.19 µM, > 100 µM and > 100 µM, respectively. The Ki ratio in the test filed under Rattus norvegicus [4] and in the test filed under Rattus norvegicus [5] was > 19.3 in each case.
For `CN1[C@H](/C=C/c2ccccc2)CCC[C@@H]1/C=C/c1ccccc1`, the Ki in test [1] is 9.88 µM; in test [2] it was > 100 µM; in test [3], 11.6 µM. Further, the Ki ratio is > 10.1 in the test listed under Rattus norvegicus [4] and 1.2 in the test listed under Rattus norvegicus [5].
The like results for `CN1[C@@H](CCc2ccc3ccccc3c2)CCC[C@H]1CCc1ccc2ccccc2c1` were, in that order, 2.03 µM, > 100 µM, > 100 µM, > 49.3 and > 49.3.
The like results for `CN[C@@H](CCCCCCc1ccccc1)CCc1ccccc1` were, in that order, 5.21 µM, > 100 µM, > 100 µM, > 19.2 and > 19.2.
Turning to `CN(CCCc1ccccc1)CCCc1ccccc1`, the Ki in test [1] is 3.07 µM; in test [2] it was > 100 µM; in test [3] it was > 100 µM. Also, the Ki ratio in the test listed under Rattus norvegicus [4] and in the test filed under Rattus norvegicus [5] was > 32.3 each time.
For the molecule `CN1[C@@H](CCc2ccccc2)CCC[C@H]1CCc1ccccc1` [LOBELANE], in test [2], affinity was put at a Ki of 26 µM.
Still for that read-out and setting: then `CN1[C@@H](CCc2ccccc2)CCC[C@@H]1CCc1ccccc1`, with 40 µM.
In the case of `C(=C\[C@@H]1CCC[C@H](/C=C/c2ccccc2)N1)/c1ccccc1`, the Ki in test [2] and in test [3] was > 100 µM in each case. The Ki ratio in the test filed under Rattus norvegicus [4] and in the test listed under Rattus norvegicus [5] was > 48.1 each time.
On to `c1ccc2c(CC[C@H]3CCC[C@@H](CCc4cccc5ccccc45)N3)cccc2c1`, for which the figures for the Ki in test [1], in test [2] and in test [3] were 4.68 µM, > 100 µM and > 100 µM, respectively. Also, the Ki ratio in the test listed under Rattus norvegicus [4] and in the test filed under Rattus norvegicus [5] was > 21.4 throughout.
In the case of `CN1[C@@H](CCc2ccccc2)CCC[C@H]1/C=C/c1ccccc1`, in test [3], the Ki is > 100 µM.
`CN1[C@@H](CCc2ccccc2)CCC[C@@H]1/C=C/c1ccccc1`: in test [3], the Ki was > 100 µM.
As to `CN1[C@@H](CCc2ccccc2)C=CC[C@H]1/C=C/c1ccccc1`, the Ki in test [1] is 3.84 µM; in test [2], > 100 µM; in test [3] it was > 100 µM. The Ki ratio in the test filed under Rattus norvegicus [4] and in the test listed under Rattus norvegicus [5] was > 26 in each case.
As to `C[N+]1(C)[C@H](CCc2ccccc2)CCC[C@H]1CCc1ccccc1`, the Ki in test [1] came to 24.6 µM; in test [2] it was 2.39 µM; in test [3], 16.2 µM. The Ki ratio in the test filed under Rattus norvegicus [4] worked out at 0.1; in the test filed under Rattus norvegicus [5], 0.7.
Turning to `CN[C@H](CCCCCCc1ccccc1)CCc1ccccc1`, the Ki in test [1] is 3.96 µM; in test [2] it was > 100 µM; in test [3] it was > 100 µM. Moreover, the Ki ratio in the test filed under Rattus norvegicus [4] and in the test filed under Rattus norvegicus [5] was > 25.2 in each case.
For `CN1[C@H](CCc2ccccc2)CC=C[C@@H]1CCc1ccccc1`, the Ki in test [3] is > 100 µM.
Same read-out and setting: as for `CN1[C@H](CCc2ccccc2)CCC[C@H]1/C=C/c1ccccc1`, the figure is > 100 µM.
Take `C[N+]1(C)[C@H](/C=C/c2ccccc2)CCC[C@@H]1/C=C/c1ccccc1`: the values for the Ki in test [1], in test [2] and in test [3] were > 100 µM, 33.8 µM and > 100 µM, respectively. Besides, the Ki ratio in the test listed under Rattus norvegicus [4] is < 0.3.
